# Counter-ions that a name gives are not always drawn.
# Target: T1, recombinant human DPP-1 (Cathepsin C) (Homo sapiens, UniProt P53634)
# T1 construct: made in house
# Assay: DPP-1 Inhibition Assay (In Vitro), fluorogenic substrate GR-AMC
# Type: biochemical
# Conditions: 0.15 nM DPP-1, 10 uM GR-AMC, pH 7.0, room temperature; average value where tested multiple times
# Description: Test compounds were assessed for DPP-1 (Cathepsin C) inhibitory activity using a fluorogenic substrate, GR-AMC (Glycine-Arginine-amino-4-methylcoumarin, Bachem, I-1215). The amount of amino-methylcoumarin released is proportional to the DPP-1 activity, and the reaction is monitored kinetically with a Molecular Devices plate reader using black 96-well plates.
# All compounds were tested under room temperature conditions. The assay buffer consisted of 50 mM HEPES, pH 7.0, 100 mM NaCl, 2 mM glutathione (GSH), and 0.002% TWEEN 20. GSH and TWEEN 20 were added to the buffer fresh daily. Just prior to use, an in-house preparation of recombinant human DPP-1 (240 μM stock, MW 49.6 kD) was diluted 600-fold in assay buffer containing fresh 2 mM dithiothreitol (DTT) to activate the enzyme, then diluted into assay buffer (without DTT) 133-fold for a DPP-1 working solution of 3 nM. Test compounds were diluted in DMSO for 20× their final assay concentrations.
# Additions to a 96-well black Costar 3915 plates were as follows: 90 μL of 11 μM GR-AMC, 5 μL test compound (followed by mixing), and 5 μL 3 nM DPP-1 to start the reaction. Fluorescent reactions were monitored kinetically at 360 nm excitation, 440 nm emission on a Molecular Devices Spectramax XPS reader. The Softmax Pro software of the reader determined the initial velocity of the selected data (the first 3-5 minutes of the reaction), and the best linear regression fit of the initial kinetic data. Final assay conditions were 0.15 nM DPP-1, 10 uM GR-AMC, 50 mM HEPES, pH 7.0, 100 mM NaCl, 2 mM GSH, 0.002% TWEEN 20, 1 uM DTT, 5.0% DMSO. Initial velocity rates were plotted vs. test compound concentration by use of a four-parameter logistics equation (nonlinear regression, sigmoidal dose-response (variable slope), with fixed Hill (1.0) using GraphPad Prism® software for determination of DPP-1 IC50. Within-run assay coefficient of variation (CV) was generally <10%; between-run CV <20%.
# Representative compounds of the present invention were tested according to the procedure as described above, with results as listed in Table 5, below.
# T1 sequence (P53634 25-463): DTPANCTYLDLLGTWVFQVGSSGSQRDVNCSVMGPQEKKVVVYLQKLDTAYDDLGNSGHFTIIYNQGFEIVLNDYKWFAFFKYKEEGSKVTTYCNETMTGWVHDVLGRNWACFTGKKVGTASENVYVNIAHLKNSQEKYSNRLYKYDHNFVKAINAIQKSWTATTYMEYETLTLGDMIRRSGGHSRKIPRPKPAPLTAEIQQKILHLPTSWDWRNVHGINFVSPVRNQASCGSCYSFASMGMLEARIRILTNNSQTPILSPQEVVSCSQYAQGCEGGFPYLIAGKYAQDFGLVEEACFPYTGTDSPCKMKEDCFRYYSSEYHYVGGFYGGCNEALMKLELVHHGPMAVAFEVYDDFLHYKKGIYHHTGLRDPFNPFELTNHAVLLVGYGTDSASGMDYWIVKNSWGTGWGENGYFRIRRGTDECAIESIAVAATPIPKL
row,SMILES,IC50 [µM]
1,N#CC[C@H](N)C(=O)N1CCC(Cc2ccc(-c3ccccc3)cc2)(C(=O)NC2CCCCC2)CC1 [Compound 36],0.6
2,N[C@@H](Cc1cccs1)C(=O)N1CCC(Cc2ccc(-c3ccccc3)cc2)(C(=O)N2CCCCC2)CC1 [Compound 4],0.43
3,N[C@@H](Cc1nccs1)C(=O)N1CCC(Cc2ccc(-c3ccccc3)cc2)(C(=O)NC2CCCCC2)CC1 [Compound 33],0.23
4,N[C@@H](Cc1cccs1)C(=O)N1CCC(Cc2ccc(-c3ccncc3)cc2)(C(=O)NC2CCCCC2)CC1 [Compound 42],0.029
5,N[C@@H](Cc1cccs1)C(=O)N1CCC(Cc2ccc(-c3ccccc3)cc2)(C(=O)NC2CCCCC2)CC1 [Compound 8],0.035
6,N[C@@H](Cc1cccs1)C(=O)N1CCC(Cc2cccc(I)c2)(C(=O)NC2CCCCC2)CC1 [Compound 96],0.084
7,N#Cc1ccccc1CC1(C(=O)NC2CCCCC2)CCN(C(=O)[C@@H](N)Cc2cccs2)CC1 [Compound 82],0.11
8,COc1ccc(-c2ccc(CC3(C(=O)NC4CCCCC4)CCN(C(=O)[C@@H](N)Cc4cccs4)CC3)cc2)cn1 [Compound 44],0.029
9,CC[C@H](N)C(=O)N1CCC(Cc2cccc(OC)c2)(C(=O)NC2CCCCC2)CC1 [Compound 83],9.5
10,N[C@@H](Cc1cccs1)C(=O)N1CCC(Cc2cccc(-c3ccc(C(F)(F)F)cc3)c2)(C(=O)NC2CCCCC2)CC1 [Compound 100],0.12
11,COc1cccc(CC2(C(=O)NC3CCCCC3)CCN(C(=O)[C@@H](N)Cc3cccs3)CC2)c1 [Compound 84],0.056
12,N[C@@H](Cc1cccs1)C(=O)N1CCC(Cc2cccc(-c3ccc(C(=O)O)cc3)c2)(C(=O)NC2CCCCC2)CC1 [Compound 102],0.19
13,N[C@@H](Cc1cccs1)C(=O)N1CCC(Cc2cccc(-c3cccc(C(=O)O)c3)c2)(C(=O)NC2CCCCC2)CC1 [Compound 101],0.14
14,CCSCC[C@H](N)C(=O)N1CCC(Cc2ccc(-c3ccccc3)cc2)(C(=O)NCC2CCCCC2)CC1 [Compound 106],5.6
15,N[C@@H](Cc1ccc(Cl)s1)C(=O)N1CCC(Cc2ccc(-c3ccccc3)cc2)(C(=O)NC2CCCCC2)CC1 [Compound 78],5.6
16,N[C@@H](Cc1cccs1)C(=O)N1CCC(C(=O)NCC2CCOCC2)(c2ccccc2)CC1 [Compound 104],0.076
17,N[C@@H](Cc1cccs1)C(=O)N1CCC(Cc2ccc(-c3ccc(C(F)(F)F)cc3)cc2)(C(=O)NC2CCCCC2)CC1 [Compound 53],0.14
18,N[C@@H](Cc1ccccc1)C(=O)N1CCC(Cc2ccc(-c3ccccc3)cc2)(C(=O)NCC2CCCCC2)CC1 [Compound 108],~4
19,"N[C@@H](Cc1cccs1)C(=O)N1CCC(Cc2ccc(-c3ccccc3)cc2)(C(=O)NCC2CCCCC2)CC1 [Compound 3, (S)-1-(2-amino-3-(thiophen-2-yl)propanoyl)-4-(biphenyl-4-ylmethyl)-N-(cyclohexylmethyl)piperidine-4-carboxamide hydrochloride]",0.084
20,N[C@@H](Cc1cccs1)C(=O)N1CCC(Cc2ccc(-c3ccc4c(c3)OCO4)cc2)(C(=O)NC2CCCCC2)CC1 [Compound 40],0.035

row,SMILES,IC50 [µM]
1,N[C@@H](Cc1cccs1)C(=O)N1CCC(Cc2ccc(-c3cccnc3Cl)cc2)(C(=O)NC2CCCCC2)CC1 [Compound 48],0.039
2,N[C@@H](Cc1c[nH]cn1)C(=O)N1CCC(Cc2ccccc2)(C(=O)OCC2CCCCC2)CC1 [Compound 12],~5
3,CC[C@H](N)C(=O)N1CCC(Cc2cccnc2)(C(=O)NC2CCCCC2)CC1 [Compound 67],9.1
4,N[C@@H](Cc1cccs1)C(=O)N1CCC(Cc2cccnc2)(C(=O)NC2CCCCC2)CC1 [Compound 66],0.054
5,N[C@@H](Cc1cccs1)C(=O)N1CCC(C(=O)NC[C@H]2CC[C@H](C(=O)O)CC2)(c2ccccc2)CC1 [Compound 112],0.2
6,N#Cc1ccc(-c2ccc(CC3(C(=O)NC4CCCCC4)CCN(C(=O)[C@@H](N)Cc4cccs4)CC3)cc2)cc1 [Compound 51],0.035
7,N[C@@H](Cc1ccco1)C(=O)N1CCC(Cc2ccc(-c3ccccc3)cc2)(C(=O)NC2CCCCC2)CC1 [Compound 37],0.23
8,N[C@@H](Cc1c[nH]cn1)C(=O)N1CCC(Cc2cccnc2)(C(=O)OCC2CCCCC2)CC1 [Compound 25],1.8
9,CC[C@H](N)C(=O)N1CCC(Cc2ccc(Cl)cc2)(C(=O)OCC2CCCCC2)CC1 [Compound 13],4.3
10,N[C@@H](Cc1cccs1)C(=O)N1CCC(C(=O)NC2CCCCC2)(c2ccccc2)CC1 [Compound 69],0.073
11,CC[C@H](N)C(=O)N1CCC(Cc2ccc(-c3ccccc3)cc2)(C(=O)NCC2CCCCC2)CC1 [Compound 5],3
12,CC[C@H](N)C(=O)N1CCC(Cc2ccncc2)(C(=O)NC2CCCCC2)CC1 [Compound 72],5
13,N[C@@H](Cc1cccs1)C(=O)N1CCC(Cc2ccc(F)cc2F)(C(=O)OCC2CCCCC2)CC1 [Compound 27],0.22
14,N[C@@H](Cc1cccs1)C(=O)N1CCC(Cc2ccc(-c3nnn[nH]3)cc2)(C(=O)NCC2CCCCC2)CC1 [Compound 127],0.083
15,N[C@@H](Cc1cccs1)C(=O)N1CCC(Cc2ccc(C(=O)Nc3ccccc3)cc2)(C(=O)NC2CCCCC2)CC1 [Compound 60],0.033
16,N[C@@H](Cc1cccs1)C(=O)N1CCC(Cc2ccc(C(=O)N3CCOCC3)cc2)(C(=O)NC2CCCCC2)CC1 [Compound 57],0.0363
17,N[C@@H](Cc1cccs1)C(=O)N1CCC(C(=O)NC2=NCCS2)(c2ccccc2)CC1 [Compound 114],0.22
18,CC[C@H](N)C(=O)N1CCC(Cc2ccccc2)(C(=O)OCC2CCCCC2)CC1 [Compound 10],~5
19,COC[C@H](N)C(=O)N1CCC(Cc2ccc(-c3ccccc3)cc2)(C(=O)NC2CCCCC2)CC1 [Compound 39],18
20,N[C@@H](Cc1cccs1)C(=O)N1CCC(Cc2cccc(-c3ccccc3)c2)(C(=O)OCC2CCCCC2)CC1 [Compound 30],0.88

row,SMILES,IC50 [µM]
1,COC(=O)C1(Cc2ccc(-c3ccccc3)cc2)CCN(C(=O)[C@@H](N)Cc2cccs2)CC1 [Compound 1],1.8
2,N[C@@H](Cc1cccs1)C(=O)N1CCC(Cc2ccc(I)cc2)(C(=O)NC2CCCCC2)CC1 [Compound 41],0.037
3,N[C@@H](Cc1cccs1)C(=O)N1CCC(C(=O)N[C@H]2CC[C@H](O)CC2)(c2ccccc2)CC1 [Compound 85],0.11
4,N[C@@H](Cc1c[nH]cn1)C(=O)N1CCC(Cc2ccc(-c3ccccc3)cc2)(C(=O)NCC2CCCCC2)CC1 [Compound 9],0.93
5,N[C@@H](Cc1cccs1)C(=O)N1CCC(Cc2ccncc2)(C(=O)OCC2CCCCC2)CC1 [Compound 22],0.093
6,N[C@@H](Cc1cccs1)C(=O)N1CCC(Cc2ccc(-c3ccccc3)cc2)(C(=O)O)CC1 [Compound 2],> 10
7,N[C@@H](Cc1c[nH]cn1)C(=O)N1CCC(Cc2ccc(C(F)(F)F)cc2)(C(=O)OCC2CCCCC2)CC1 [Compound 20],3.1
8,COc1ncccc1-c1ccc(CC2(C(=O)NC3CCCCC3)CCN(C(=O)[C@@H](N)Cc3cccs3)CC2)cc1 [Compound 46],0.038
9,CC(=O)Nc1ccccc1-c1ccc(CC2(C(=O)NC3CCCCC3)CCN(C(=O)[C@@H](N)Cc3cccs3)CC2)cc1 [Compound 45],0.052
10,CC[C@H](N)C(=O)N1CCC(Cc2ccc(F)cc2F)(C(=O)OCC2CCCCC2)CC1 [Compound 26],6.1
11,Nc1ccc(CC2(C(=O)NC3CCCCC3)CCN(C(=O)[C@@H](N)Cc3cccs3)CC2)cc1 [Compound 95],0.063
12,N[C@@H](Cc1cccs1)C(=O)N1CCC(C(=O)NC2CCOCC2)(c2ccccc2)CC1 [Compound 103],0.31
13,N[C@@H](Cc1c[nH]cn1)C(=O)N1CCC(Cc2ccc([N+](=O)[O-])cc2)(C(=O)NC2CCCCC2)CC1 [Compound 79],0.62
14,N[C@@H](Cc1c[nH]cn1)C(=O)N1CCC(C(=O)NC2CCCCC2)(c2ccccc2)CC1 [Compound 75],2.8
15,CC[C@H](N)C(=O)N1CCC(Cc2ccncc2)(C(=O)OCC2CCCCC2)CC1 [Compound 21],7.4
16,N[C@@H](Cc1cccs1)C(=O)N1CCC(Cc2ccc(-c3cccnc3)cc2)(C(=O)NC2CCCCC2)CC1 [Compound 50],0.035
17,N[C@@H](Cc1cccs1)C(=O)N1CCC(Cc2ccccc2)(C(=O)OCC2CCCCC2)CC1 [Compound 11],0.22
18,CN(CC1CCCCC1)C(=O)C1(c2ccccc2)CCN(C(=O)[C@@H](N)Cc2cccs2)CC1 [Compound 134],0.016
19,N[C@@H](Cc1cccs1)C(=O)N1CCC(Cc2cccc(-c3cncnc3)c2)(C(=O)NC2CCCCC2)CC1 [Compound 97],0.039

# — US8686152B2, “4,4-disubstituted piperidine derivatives useful as inhibitors of dipeptidyl peptidase-1 (DPP-1)” (Janssen Pharmaceutica NV, priority 2010, dated 2014)
